Patent US10391106B2, “19-nor C3, 3-disubstituted C21-C-bound heteroaryl steroids and methods of use thereof” (Sage Therapeutics, Inc., priority 2013, dated 2019)

Experiments:
GABAA receptor α4β3δ = biological target: T1, GABAA receptor α4β3δ (Homo sapiens, UniProt P28472+P48169); assay: Patch clamp electrophysiology, manual patch in CHO cells; format: cell-based; conditions: 10 μM test article, potentiation of GABA EC20 (2 μM) current, read-out: GABA (α4β3δ) Manual patch in CHO, % efficacy at 10 μM
T1 construct: expressed in transfected cells; host or cells: CHO cells (transiently transfected, Lipofectamine)
T1 sequence (P48169 36-554): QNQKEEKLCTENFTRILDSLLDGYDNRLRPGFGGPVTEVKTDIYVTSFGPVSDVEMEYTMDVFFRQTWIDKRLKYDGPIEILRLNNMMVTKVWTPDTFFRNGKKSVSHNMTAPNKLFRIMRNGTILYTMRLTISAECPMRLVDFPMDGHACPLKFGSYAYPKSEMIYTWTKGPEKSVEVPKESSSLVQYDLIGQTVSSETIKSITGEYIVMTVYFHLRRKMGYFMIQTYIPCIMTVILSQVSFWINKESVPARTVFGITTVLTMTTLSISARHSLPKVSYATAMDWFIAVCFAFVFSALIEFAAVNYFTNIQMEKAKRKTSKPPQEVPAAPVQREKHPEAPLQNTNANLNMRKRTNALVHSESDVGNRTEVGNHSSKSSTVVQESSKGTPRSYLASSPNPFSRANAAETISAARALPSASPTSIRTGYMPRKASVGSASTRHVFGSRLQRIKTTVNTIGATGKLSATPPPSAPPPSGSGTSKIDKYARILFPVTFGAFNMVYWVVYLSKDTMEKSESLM
T1 sequence (P28472 26-473): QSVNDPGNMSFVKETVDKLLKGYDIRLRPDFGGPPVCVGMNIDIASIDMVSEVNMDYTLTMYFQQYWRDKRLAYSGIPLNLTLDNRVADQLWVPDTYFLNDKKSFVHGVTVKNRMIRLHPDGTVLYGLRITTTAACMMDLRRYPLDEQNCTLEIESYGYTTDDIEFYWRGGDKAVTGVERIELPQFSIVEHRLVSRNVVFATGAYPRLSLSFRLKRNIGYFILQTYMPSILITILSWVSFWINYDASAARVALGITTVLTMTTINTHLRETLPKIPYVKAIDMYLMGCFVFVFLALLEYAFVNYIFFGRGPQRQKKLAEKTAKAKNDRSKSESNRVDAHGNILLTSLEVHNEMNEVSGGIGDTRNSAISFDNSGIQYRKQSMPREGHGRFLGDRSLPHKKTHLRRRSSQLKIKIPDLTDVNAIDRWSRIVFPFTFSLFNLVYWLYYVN
T1 sequence (O14764 25-452 partner): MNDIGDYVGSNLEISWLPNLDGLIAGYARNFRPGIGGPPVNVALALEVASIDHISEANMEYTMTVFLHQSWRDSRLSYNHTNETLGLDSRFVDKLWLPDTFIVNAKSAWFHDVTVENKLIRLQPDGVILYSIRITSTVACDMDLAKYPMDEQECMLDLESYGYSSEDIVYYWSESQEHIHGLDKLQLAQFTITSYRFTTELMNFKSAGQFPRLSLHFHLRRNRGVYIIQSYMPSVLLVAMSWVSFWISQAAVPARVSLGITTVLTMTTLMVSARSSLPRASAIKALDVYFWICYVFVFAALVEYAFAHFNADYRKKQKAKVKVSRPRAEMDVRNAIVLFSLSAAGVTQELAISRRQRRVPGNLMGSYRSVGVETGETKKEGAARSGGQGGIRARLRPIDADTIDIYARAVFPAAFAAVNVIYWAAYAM
Method: (§1) Patch Clamp Electrophysiology of Recombinant α1β2γ2 and α4β3δ GABAA Receptors
(§2) Cellular electrophysiology is used to measure the pharmacological properties of our GABAA receptor modulators in heterologous cell systems. Each compound is tested for its ability to affect GABA mediated currents at a submaximal agonist dose (GABA EC20=2 μM). LTK cells are stably transfected with the α1β2γ2 subunits of the GABA receptor and CHO cells are transiently transfected with the α4β3δ subunits via the Lipofecatamine method. Cells were passaged at a confluence of about 50-80% and then seeded onto 35 mm sterile culture dishes containing 2 ml culture complete medium without antibiotics or antimycotics. Confluent clusters of cells are electrically coupled (Pritchett et al, Science, 1988, 242, 1306-1308.). Because responses in distant cells are not adequately voltage clamped and because of uncertainties about the extent of coupling (Verdoorn et al., Neuron 1990, 4, 919-928.), cells were cultivated at a density that enables the recording of single cells (without visible connections to other cells).
Whole cell currents were measured with HEKA EPC-10 amplifiers using PatchMaster software or by using the high throughput QPatch platform (Sophion). Bath solution for all experiments contained (in mM): NaCl 137 mM, KCl 4 mM, CaCl2 1.8 mM, MgCl2 1 mM, HEPES 10 mM, D-Glucose 10 mM, pH (NaOH) 7.4.. […]

[1] = biological target: GABAA-R (rat brain cortical membranes); assay: Steroid inhibition of [35S]-TBPS binding (radioligand displacement); conditions: in the presence of 5 μM GABA
Method: Steroid Inhibition of TBPS Binding
[35S]-t-Butylbicyclophosphorothionate (TBPS) binding assays using rat brain cortical membranes in the presence of 5 μM GABA has been described (Gee et al, J. Pharmacol. Exp. Ther. 1987, 241, 346-353; Hawkinson et al, Mol. Pharmacol. 1994, 46, 977-985; Lewin, A. H et al., Mol. Pharmacol. 1989, 35, 189-194).
Briefly, cortices are rapidly removed following decapitation of carbon dioxide-anesthetized Sprague-Dawley rats (200-250 g). The cortices are homogenized in 10 volumes of ice-cold 0.32 M sucrose using a glass/teflon homogenizer and centrifuged at 1500×g for 10 min at 4° C. The resultant supernatants are centrifuged at 10,000×g for 20 min at 4° C. to obtain the P2 pellets. The P2 pellets are resuspended in 200 mM NaCl/50 mM Na-K phosphate pH 7.4 buffer and centrifuged at 10,000×g for 10 min at 4° C. This washing procedure is repeated twice and the pellets are resuspended in 10 volumes of buffer. Aliquots (100 μL) of the membrane suspensions are incubated with 3 nM [^35S]-TBPS and 5 μL aliquots of test drug dissolved in dimethyl sulfoxide (DMSO) (final 0.5%) in the presence of 5 μM GABA. The incubation is brought to a final volume of 1.0 mL with buffer. […] Following a 90 min incubation at room temp, the assays are terminated by filtration through glass fiber filters (Schleicher and Schuell No. 32) using a cell harvester (Brandel) and rinsed three times with ice-cold buffer. Filter bound radioactivity is measured by liquid scintillation spectrometry. Non-linear curve fitting of the overall data for each drug averaged for each concentration is done using Prism (GraphPad). […] The concentration of test compound producing 50% inhibition (IC50) of specific binding and the maximal extent of inhibition (Imax) are determined for the individual experiments with the same model used for the overall data and then the means ±SEM.s of the individual experiments are calculated.
Various compounds are or can be screened to determine their potential as modulators of [^35S]-TBPS binding in vitro. These assays are or can be performed in accordance with the above discussed procedures.

GABAA receptor α1β2γ2 = biological target: T2, GABAA receptor α1β2γ2 (Homo sapiens, UniProt P14867+P47870); assay: Patch clamp electrophysiology, Qpatch in Ltk cells; format: cell-based; conditions: 10 μM test article, potentiation of GABA EC20 (2 μM) current, read-out: GABA (α1β2γ2) Qpatch in Ltk, % efficacy at 10 μM
T2 construct: expressed in transfected cells; host or cells: LTK cells (stably transfected)
T2 sequence (P14867 28-456): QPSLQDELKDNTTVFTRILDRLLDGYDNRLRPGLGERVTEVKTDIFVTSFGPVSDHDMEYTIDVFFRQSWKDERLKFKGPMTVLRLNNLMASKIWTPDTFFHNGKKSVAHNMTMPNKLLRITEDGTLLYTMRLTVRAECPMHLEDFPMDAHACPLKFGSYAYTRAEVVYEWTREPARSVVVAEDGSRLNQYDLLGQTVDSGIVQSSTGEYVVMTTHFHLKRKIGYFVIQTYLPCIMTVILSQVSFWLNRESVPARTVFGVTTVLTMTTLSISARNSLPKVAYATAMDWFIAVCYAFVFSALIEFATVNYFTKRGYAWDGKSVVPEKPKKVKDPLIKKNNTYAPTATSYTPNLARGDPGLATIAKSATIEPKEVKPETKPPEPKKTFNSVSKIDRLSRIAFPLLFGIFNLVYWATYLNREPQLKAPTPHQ
T2 sequence (P47870 25-512 limits assumed): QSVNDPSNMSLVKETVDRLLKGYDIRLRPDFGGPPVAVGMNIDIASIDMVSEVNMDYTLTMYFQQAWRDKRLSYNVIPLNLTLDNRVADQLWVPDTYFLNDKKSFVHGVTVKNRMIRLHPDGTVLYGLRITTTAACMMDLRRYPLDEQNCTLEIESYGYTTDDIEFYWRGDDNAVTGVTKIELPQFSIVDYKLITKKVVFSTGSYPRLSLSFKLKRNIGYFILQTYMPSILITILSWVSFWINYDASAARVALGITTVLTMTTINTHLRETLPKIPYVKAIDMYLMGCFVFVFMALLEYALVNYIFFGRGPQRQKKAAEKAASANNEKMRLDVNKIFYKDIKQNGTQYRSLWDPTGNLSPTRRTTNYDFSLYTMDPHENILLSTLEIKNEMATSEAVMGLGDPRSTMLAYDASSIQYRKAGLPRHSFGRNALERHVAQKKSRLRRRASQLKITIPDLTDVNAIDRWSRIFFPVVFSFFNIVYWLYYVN
T2 sequence (P18507 40-475 partner): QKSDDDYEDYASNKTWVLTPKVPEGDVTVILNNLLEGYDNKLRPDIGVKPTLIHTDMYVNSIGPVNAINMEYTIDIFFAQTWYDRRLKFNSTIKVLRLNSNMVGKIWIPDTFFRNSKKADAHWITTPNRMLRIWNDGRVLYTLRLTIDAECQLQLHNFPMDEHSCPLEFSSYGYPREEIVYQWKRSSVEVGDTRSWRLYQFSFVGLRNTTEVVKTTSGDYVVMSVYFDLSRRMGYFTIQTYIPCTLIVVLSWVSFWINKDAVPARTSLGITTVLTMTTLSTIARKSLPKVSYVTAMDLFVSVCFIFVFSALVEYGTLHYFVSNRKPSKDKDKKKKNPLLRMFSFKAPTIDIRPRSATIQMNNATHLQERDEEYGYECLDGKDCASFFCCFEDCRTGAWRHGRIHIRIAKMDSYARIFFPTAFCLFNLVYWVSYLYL
Method: as §1, §2
Whole cell currents were measured with HEKA EPC-10 amplifiers using PatchMaster software or by using the high throughput QPatch platform (Sophion). Bath solution for all experiments contained (in mM): NaCl 137 mM, KCl 4 mM, CaCl2 1.8 mM, MgCl2 1 mM, HEPES 10 mM, D-Glucose 10 mM, pH (NaOH) 7.4.. In some cases 0.005% cremophor was also added. Intracellular (pipette) solution contained: KCl 130 mM, MgCl2 1 mM, Mg-ATP 5 mM, HEPES 10 mM, EGTA 5 mM, pH 7.2. During experiments, cells and solutions were maintained at room temperature (19° C.-30° C.). For manual patch clamp recordings, cell culture dishes were placed on the dish holder of the microscope and continuously perfused (1 ml/min) with bath solution. After formation of a Gigaohm seal between the patch electrodes and the cell (pipette resistance range: 2.5 MΩ-6.0 MΩ; seal resistance range:>1 GΩ) the cell membrane across the pipette tip was ruptured to assure electrical access to the cell interior (whole-cell patch-configuration). For experiments using the QPatch system, cells were transferred as suspension to the QPatch system in the bath solution and automated whole cell recordings were performed.
Cells were voltage clamped at a holding potential of −80 mV. For the analysis of test articles, GABA receptors were stimulated by 2 μM GABA after sequential pre-incubation of increasing concentrations of the test article. Pre-incubation duration was 30 s and the duration of the GABA stimulus was 2 s. Test articles were dissolved in DMSO to form stock solutions (10 mM). Test articles were diluted to 0.01, 0.1, 1, and 10 μM in bath solution. All concentrations of test articles were tested on each cell. The relative percentage potentiation was defined as the peak amplitude in response to GABA EC20 in the presence of the test article divided by the peak amplitude in response to GABA EC20 alone, multiplied by 100.

Compound	Emax at 10 µM (GABAA receptor α4β3δ) [%]	IC50 [1] [nM]	Emax at 10 µM (GABAA receptor α1β2γ2) [%]
Cc1nc(CC(=O)[C@H]2CC[C@H]3[C@@H]4CC[C@@H]5C[C@](C)(O)CC[C@@H]5[C@H]4CC[C@]23C)oc1C [SA-1]	10 to 100	< 50	> 500
C[C@@]1(O)CC[C@H]2[C@H](CC[C@@H]3[C@@H]2CC[C@]2(C)[C@@H](C(=O)Cc4ccccn4)CC[C@@H]32)C1 [SA-2]	100 to 500	< 50	100 to 500
Cn1ccnc1CC(=O)[C@H]1CC[C@H]2[C@@H]3CC[C@@H]4C[C@](C)(O)CC[C@@H]4[C@H]3CC[C@]12C [SA-3]		100 to 500	100 to 500
Cc1cccc(CC(=O)[C@H]2CC[C@H]3[C@@H]4CC[C@@H]5C[C@](C)(O)CC[C@@H]5[C@H]4CC[C@]23C)n1 [SA-4]		< 50	100 to 500
C[C@@]1(O)CC[C@H]2[C@H](CC[C@@H]3[C@@H]2CC[C@]2(C)[C@@H](C(=O)Cc4ccccc4)CC[C@@H]32)C1 [SA-5]		< 50	
C[C@@]1(O)CC[C@H]2[C@H](CC[C@@H]3[C@@H]2CC[C@]2(C)[C@@H](C(=O)Cc4nccs4)CC[C@@H]32)C1 [SA-7]		< 50	> 500
Cc1nc(CC(=O)[C@H]2CC[C@H]3[C@@H]4CC[C@@H]5C[C@](C)(O)CC[C@@H]5[C@H]4CC[C@]23C)sc1C [SA-8]		50 to 100	
C[C@@]1(O)CC[C@H]2[C@H](CC[C@@H]3[C@@H]2CC[C@]2(C)[C@@H](C(=O)Cc4cnccn4)CC[C@@H]32)C1 [SA-9]			100 to 500
C[C@@]1(O)CC[C@H]2[C@H](CC[C@@H]3[C@@H]2CC[C@]2(C)[C@@H](C(=O)Cc4cccnc4)CC[C@@H]32)C1 [SA-10]		< 50	
